# In patent US11083729B2, “Methods of treating cancer with small molecule NF-κB inhibitors” (ImmuneTarget, Inc., priority 2017, dated 2021):
# Target: T1, c-Rel protein (Homo sapiens, UniProt Q04864)
# T1 sequence (Q04864 1-619): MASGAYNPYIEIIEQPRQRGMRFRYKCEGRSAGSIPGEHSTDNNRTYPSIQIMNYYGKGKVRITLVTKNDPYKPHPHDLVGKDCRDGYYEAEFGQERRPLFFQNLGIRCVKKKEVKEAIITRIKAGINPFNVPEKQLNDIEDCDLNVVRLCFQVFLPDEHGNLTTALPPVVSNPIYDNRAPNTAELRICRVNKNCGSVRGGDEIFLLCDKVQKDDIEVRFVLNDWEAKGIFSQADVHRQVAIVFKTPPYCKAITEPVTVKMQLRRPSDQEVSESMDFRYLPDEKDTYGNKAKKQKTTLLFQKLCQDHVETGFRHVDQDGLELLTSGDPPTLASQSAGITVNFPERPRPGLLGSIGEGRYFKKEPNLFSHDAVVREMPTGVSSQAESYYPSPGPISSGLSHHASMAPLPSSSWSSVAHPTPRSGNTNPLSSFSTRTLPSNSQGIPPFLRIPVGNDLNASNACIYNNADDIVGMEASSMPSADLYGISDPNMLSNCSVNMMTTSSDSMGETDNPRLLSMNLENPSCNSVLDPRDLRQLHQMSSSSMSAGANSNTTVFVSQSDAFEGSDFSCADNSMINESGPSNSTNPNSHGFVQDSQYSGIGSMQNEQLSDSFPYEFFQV
# Assay: Electrophoretic Mobility Shift Assay (EMSA), c-Rel binding to CD28RE oligonucleotide
# Conditions: 10 nM c-Rel protein
# Description: DNA binding reaction (20 μL) was carried out in 1×DNA Binding Buffer (10 mM Tris, 40 mM NaCl, 1 mM EDTA, 4% glycerol) with 10 nM c-Rel protein and 0.5 ng phosphor-labeled CD28RE oligonucleotide for 10 minutes at room temperature in 96-well plates. Test compounds, in serial dilutions, were added into each well, and further incubated for 15 minutes before loading onto native 5% polyacrylamide gel. Electrophoresis proceeded for 2.5 hours at 160V. Radioactive signals were quantified using Phospho-Imager. IC50 of compounds of example 1 to 75 were determined by quantifying the intensity of Rel/NF-κB inhibition in EMSA using phospho-imager. An example of EMSA data of the present invention is shown for compound 6 in FIG. 2.
row,Compound,IC50
1,"CCCCn1c(=O)nc2oc3cc(OCC)c(Cl)cc3cc-2c1=O [compound 26, 3-butyl-7-chloro-8-ethoxy-2H-chromeno[2,3-d]pyrimidine-2,4(3H)-dione]",< 1000 nM
2,"COc1cc(Cl)cc2cc3c(=O)[nH]c(=O)nc-3oc12 [compound 3, 7-chloro-9-methoxy-2H-chromeno[2,3-d]pyrimidine-2,4(3H)-dione]",< 2000 nM
3,CCCCCCOc1ccc2cc3c(=O)[nH]c(=O)nc-3oc2c1F [compound 46],< 500 nM
4,CCCCCCCOc1ccc2cc3c(=O)[nH]c(=O)nc-3oc2c1Cl [compound 42],< 500 nM
5,COCCOCCCOc1cc2oc3nc(=O)[nH]c(=O)c-3cc2cc1Cl [compound 74],< 1000 nM
6,"COCCOCCCOc1cc2oc3nc(=O)[nH]c(=O)c-3cc2cc1F [compound 75, 7-fluoro-8-(3-(2-methoxyethoxy)propoxy)-2H-chromeno[2,3-d]pyrimidine-2,4(3H)-dione]",< 1000 nM
7,CC(C)CCCOc1ccc2cc3c(=O)[nH]c(=O)nc-3oc2c1F [compound 47],< 1000 nM
8,COCCOCCCOc1ccc2cc3c(=O)[nH]c(=O)nc-3oc2c1F [compound 73],< 1000 nM
9,"O=C(O)CCCCCOc1ccc2cc3c(=O)[nH]c(=O)nc-3oc2c1Cl [compound 53, 6-((9-chloro-2,4-dioxo-3,4-dihydro-2H-chromeno[2,3-d]pyrimidin-8-yl)oxy)hexanoic acid]",< 5000 nM
10,COCCCCOc1ccc2cc3c(=O)[nH]c(=O)nc-3oc2c1F [compound 68],< 1000 nM
11,"O=c1[nH]c(=S)nc2oc3cc(O)ccc3cc1-2 [compound 16, 8-hydroxy-2-thioxo-2H-chromeno[2,3-d]pyrimidin-4(3H)-one]",< 500 nM
12,CC(C)COc1ccc2cc3c(=O)[nH]c(=O)nc-3oc2c1F [compound 48],< 500 nM
13,COCCCCOc1cc2oc3nc(=O)[nH]c(=O)c-3cc2cc1F [compound 70],< 1000 nM
14,O=C(O)COc1ccc2cc3c(=O)[nH]c(=O)nc-3oc2c1Cl [compound 56],< 5000 nM
15,"COc1ccc2cc3c(=O)[nH]c(=S)nc-3oc2c1 [compound 8, 8-methoxy-2-thioxo-2H-chromeno[2,3-d]pyrimidin-4(3H)-one]",< 500 nM
16,CCCCCCOc1cc2oc3nc(=O)[nH]c(=O)c-3cc2cc1F [compound 31],< 500 nM

row,Compound,IC50
1,O=C(O)CCCOc1ccc2cc3c(=O)[nH]c(=O)nc-3oc2c1Cl [compound 55],< 5000 nM
2,"O=c1nc2oc3cc(O)ccc3cc-2c(=O)[nH]1 [compound 11, 8-hydroxy-2H-chromeno[2,3-d]pyrimidine-2,4(3H)-dione]",< 1000 nM
3,COCCOCCOc1cc2oc3nc(=O)[nH]c(=O)c-3cc2cc1F [compound 65],< 1000 nM
4,COCCOCCCOc1ccc2cc3c(=O)[nH]c(=O)nc-3oc2c1 [compound 71],< 1000 nM
5,COCCOCCOc1ccc2cc3c(=O)[nH]c(=O)nc-3oc2c1Cl [compound 62],< 1000 nM
6,"Cc1cc2oc3nc(=O)[nH]c(=O)c-3cc2cc1F [compound 27, 7-fluoro-8-methyl-2H-chromeno[2,3-d]pyrimidine-2,4(3H)-dione]",< 500 nM
7,"CC(C)COc1ccc2cc3c(=O)[nH]c(=O)nc-3oc2c1 [compound 23, 8-isobutoxy-2H-chromeno[2,3-d]pyrimidine-2,4(3H)-dione]",< 1000 nM
8,"COc1cccc2cc3c(=O)[nH]c(=O)nc-3oc12 [compound 1, 9-methoxy-2H-chromeno[2,3-d]pyrimidine-2,4(3H)-dione]",< 2000 nM
9,COCCCCOc1ccc2cc3c(=O)[nH]c(=O)nc-3oc2c1 [compound 67],< 1000 nM
10,CC(C)CCCOc1cc2oc3nc(=O)[nH]c(=O)c-3cc2cc1F [compound 35],< 1000 nM
11,"COc1cc(Cl)cc2cc3c(=O)[nH]c(=S)nc-3oc12 [compound 7, 7-chloro-9-methoxy-2-thioxo-2H-chromeno[2,3-d]pyrimidin-4(3H)-one]",< 2000 nM
12,COCCCCOc1cc2oc3nc(=O)[nH]c(=O)c-3cc2cc1Cl [compound 69],< 1000 nM
13,"CCOc1ccc2cc3c(=O)[nH]c(=O)nc-3oc2c1Cl [compound 22, 9-chloro-8-ethoxy-2H-chromeno[2,3-d]pyrimidine-2,4(3H)-dione]",< 1000 nM
14,"CCCCn1c(=O)nc2oc3cc(OCC)ccc3cc-2c1=O [compound 24, 3-(n-butyl)-8-ethoxy-2H-chromeno[2,3-d]pyrimidine-2,4(3H)-dione]",< 1000 nM
15,CCCCCOc1ccc2cc3c(=O)[nH]c(=O)nc-3oc2c1Cl [compound 39],< 500 nM
16,"CC(=O)OCCCCOc1ccc2cc3c(=O)[nH]c(=O)nc-3oc2c1Cl [compound 60, 4-((9-chloro-2,4-dioxo-3,4-dihydro-2H-chromeno[2,3-d]pyrimidin-8-yl)oxy)butyl acetate]",< 5000 nM

# More lines, now with the values ahead:
row,IC50,Compound
1,< 500 nM,CC(C)(C)CCOc1ccc2cc3c(=O)[nH]c(=O)nc-3oc2c1Cl [compound 41]
2,< 1000 nM,CC(=O)OCCCCOc1ccc2cc3c(=O)[nH]c(=O)nc-3oc2c1 [compound 51]
3,< 1000 nM,COCCOCCCOc1ccc2cc3c(=O)[nH]c(=O)nc-3oc2c1Cl [compound 72]
4,< 1000 nM,"CCCc1cc2oc3nc(=O)[nH]c(=O)c-3cc2cc1Cl [compound 25, 7-chloro-8-propyl-2H-chromeno[2,3-d]pyrimidine-2,4(3H)-dione]"
5,< 5000 nM,"O=c1nc2oc3ccccc3cc-2c(=O)[nH]1 [compound 9, 2H-chromeno[2,3-d]pyrimidine-2,4(3H)-dione]"
6,< 1000 nM,"CCCCCCOc1ccc2cc3c(=O)[nH]c(=O)nc-3oc2c1 [compound 21, 8-(n-hexyloxy)-2H-chromeno[2,3-d]pyrimidine-2,4(3H)-dione]"
7,< 500 nM,CCCCOc1ccc2cc3c(=O)[nH]c(=O)nc-3oc2c1Cl [compound 43]
8,< 5000 nM,CC(=O)OCCCOc1ccc2cc3c(=O)[nH]c(=O)nc-3oc2c1Cl [compound 59]
9,< 1000 nM,"COc1ccc2oc3nc(=O)[nH]c(=O)c-3cc2c1 [compound 10, 7-methoxy-2H-chromeno[2,3-d]pyrimidine-2,4(3H)-dione]"
10,< 500 nM,"CCOc1cc2oc3nc(=O)[nH]c(=O)c-3cc2cc1F [compound 28, 8-ethoxy-7-fluoro-2H-chromeno[2,3-d]pyrimidine-2,4(3H)-dione]"
11,< 2000 nM,"COc1cc(Br)cc2cc3c(=O)[nH]c(=O)nc-3oc12 [compound 4, 7-bromo-9-methoxy-2H-chromeno[2,3-d]pyrimidine-2,4(3H)-dione]"
12,< 1000 nM,"COc1ccc2cc3c(=O)[nH]c(=O)nc-3oc2c1 [compound 6, 8-methoxy-2H-chromeno[2,3-d]pyrimidine-2,4(3H)-dione]"
13,< 1000 nM,COCCOCCOc1cc2oc3nc(=O)[nH]c(=O)c-3cc2cc1Cl [compound 64]
14,< 500 nM,CC(C)CCOc1cc2oc3nc(=O)[nH]c(=O)c-3cc2cc1F [compound 33]
15,< 1000 nM,CCCCOc1ccc2cc3c(=O)[nH]c(=O)nc-3oc2c1 [compound 50]
16,< 500 nM,CCCCOc1ccc2cc3c(=O)[nH]c(=O)nc-3oc2c1F [compound 45]
17,< 500 nM,CC(C)COc1cc2oc3nc(=O)[nH]c(=O)c-3cc2cc1Cl [compound 38]
18,< 5000 nM,CC(=O)OCCCCCCOc1ccc2cc3c(=O)[nH]c(=O)nc-3oc2c1Cl [compound 58]
19,< 500 nM,CCCCCCOc1ccc2cc3c(=O)[nH]c(=O)nc-3oc2c1Cl [compound 44]
20,< 500 nM,"COc1ccc2oc3nc(=S)[nH]c(=O)c-3cc2c1 [compound 15, 7-methoxy-2-thioxo-2H-chromeno[2,3-d]pyrimidin-4(3H)-one]"
21,< 500 nM,"COc1cc(OC)c2cc3c(=O)[nH]c(=S)nc-3oc2c1 [compound 18, 6,8-dimethoxy-2-thioxo-2H-chromeno[2,3-d]pyrimidin-4(3H)-one]"
22,< 500 nM,CCCCCCCOc1ccc2cc3c(=O)[nH]c(=O)nc-3oc2c1F [compound 52]
23,< 1000 nM,"Cc1ccc2cc3c(=O)[nH]c(=O)nc-3oc2c1 [compound 12, 8-methyl-2H-chromeno[2,3-d]pyrimidine-2,4(3H)-dione]"
24,< 500 nM,CC(C)(C)CCOc1cc2oc3nc(=O)[nH]c(=O)c-3cc2cc1F [compound 34]
25,< 1000 nM,"CCCOc1ccc2cc3c(=O)[nH]c(=O)nc-3oc2c1 [compound 19, 8-propoxy-2H-chromeno[2,3-d]pyrimidine-2,4(3H)-dione]"
26,< 500 nM,"Cc1ccc2cc3c(=O)[nH]c(=S)nc-3oc2c1 [compound 17, 8-methyl-2-thioxo-2H-chromeno[2,3-d]pyrimidin-4(3H)-one]"
27,< 1000 nM,"CCCOc1cc2oc3nc(=O)[nH]c(=O)c-3cc2cc1Cl [compound 20, 7-chloro-8-propoxy-2H-chromeno[2,3-d]pyrimidine-2,4(3H)-dione]"
28,< 500 nM,CCCCOc1cc2oc3nc(=O)[nH]c(=O)c-3cc2cc1F [compound 29]
